Laboratory results published in article PMC11817372, “The Silkworm (Bombyx mori) Neuropeptide Orcokinin’s Efficiency in Whitening and Skincare” (International Journal of Molecular Sciences, 2025).
Like-named read-outs stand apart in the source and are kept apart here.

How the values were obtained:
Tyrosinase [1] = system: Tyrosinase; set-up: method as in PMID 23134995; conditions: cited from earlier work
Source text: Neuropeptides with biological functions were called neuropeptides if they were secreted by neural tissues and involved in nervous system functions, which were characterized by low content, high activity, and extensive and complex functions (including food intake regulation, improved metabolism, neural regulation and reproduction, etc.). However, there have been few reports on the pigmentation regulation of neuropeptide. One important function of BommoOK, as a multifunctional neuropeptide, was pigmentation regulation. In silkworm q-l (quail like) mutants, BommoOK was a losing function, a ...

Tyrosinase [2] = conditions: for Inhibitory rate on tyrosinase, Average: average over 5, 0.1, 0.05 and 0.025 mmol/L; for highest inhibition rate on tyrosinase: highest rate among the tested concentrations; for effect on tyrosinase reaction course (in words): absorbance time course 10-180 s compared with negative control completed at 60 s
Method: The peptide solution (5 mmol/L) was then diluted 50-fold (0.1 mmol/L), 100-fold (0.05 mmol/L), and 200-fold (0.025 mmol/L), respectively, and then the inhibitory rate was calculated after a 5 min reaction.

[3] = system: UV-irradiated guinea pig skin; assay type: in vivo, guinea pig (Cavia porcellus); conditions: peptide solution 5 mmol/L painted on UV-irradiated back skin, sections after 24 h; for pathological tissue findings (Masson staining and HE staining): versus deionized water side
Method: Model preparation: Six adult healthy guinea pigs with normal development were selected. The fur on both sides of the back was shaved to expose a circular area with a diameter of 4 cm. Ultraviolet (UV) irradiation was performed at 10 cm from the skin in the exposed area, once daily with a dose of 700 mJ/cm^2, and continued for 7 consecutive days, with a cumulative dose of […]. A metal halide lamp was used as the light source with a power of 1000 W and a peak spectrum of 360 nm, including 70% long-wave ultraviolet (UVA) and 4% medium-wave ultraviolet (UVB). After UV-irradiation treatment, the peptide solution (5 mmol/L) was painted to the right, and an equal amount of deionized water was applied to the left. Tissue sections and staining observations were performed after 24 h.
Sectioning: Approximately 0.4 cm^3 of subcutaneous tissue from the drug administration area was excised, cleaned with physiological saline, and fixed. After dehydration (DIAPATH, Donatello, Milan, Italy) and hardening treatment, it was subsequently made transparent and subjected to a wax immersion treatment. After paraffin embedding (Wuhan Junjie Electronics Co., Ltd., JB-P5, Wuhan, China), the tissue was sectioned using a microtome (Shanghai Leica Instrument Co., Ltd., RM2016, Shanghai, China). The arranged sections were organized (Zhejiang Jinhua Kedi Instrument Equipment Co., Ltd., KD-P, Jinhua, China) for HE staining and Masson staining.
HE staining: The paraffin sections were placed in xylene I for 20 min, xylene II for 20 min, anhydrous ethanol I for 5 min, anhydrous ethanol II for 5 min, and 75% alcohol for 5 min for dewaxing treatment; after washing with water, they were placed into hematoxylin staining solution for 3–5 min, differentiated with differentiation solution after washing, and returned to blue with bluing solution after washing; after rinsing with running water, they were dehydrated with 85% and 95% alcohol solutions for 5 min each successively; after immersed into eosin staining solution for 5 min, they were placed in anhydrous ethanol I for 5 min, anhydrous ethanol II for 5 min, anhydrous ethanol III for 5 min, xylene I for 5 min, and xylene II for 5 min for transparency treatment. After, they were sealed with neutral gum, they were examined (Nikon Eclipse E100, Tokyo, Japan) and imaged (Nikon DS-U3, Tokyo, Japan) using a microscope.
Masson staining: The paraffin sections were placed in xylene I for 20 min, xylene II for 20 min, anhydrous ethanol I for 5 min, anhydrous ethanol II for 5 min, and 75% alcohol for 5 min for dewaxing treatment; after washing with water, they were immersed into Masson A solution overnight, washed with water, then immersed into a mixture of Masson B and Masson C for 1 min, washed with water, then differentiated using an alcohol solution containing 1% hydrochloric acid. Then, they were washed with water, then immersed into Masson D solution for 6 min, washed with water, then immersed into Masson E solution for 1 min, drained, and directly immersed into Masson F solution for 30 s. Subsequently, the sections were rinsed with 1% glacial acetic acid for differentiation, dehydrated with anhydrous ethanol three times for 5 min each, treated with xylene for transparency for 5 min, and then sealed with neutral gum. The sections were examined (Nikon Eclipse E100, Japan) and imaged (Nikon DS-U3, Japan) using a microscope.

B. mori = conditions: CRISPR/cas9 tool and mature peptide subcutaneous injection; cited from earlier work
[4] = 0.025 mmol/L, after 5 min reaction
[5] = 0.05 mmol/L, after 5 min reaction
[6] = 0.1 mmol/L, after 5 min reaction

Row | Molecule | whitening effect relative to β-arbutin (Tyrosinase [1]) | Inhibitory rate on tyrosinase (Tyrosinase [2]; [4]) | Inhibitory rate on tyrosinase (Tyrosinase [2]; [5]) [%] | Inhibitory rate on tyrosinase (Tyrosinase [2]; [6]) [%] | Inhibitory rate on tyrosinase (Tyrosinase [2]; 5 mmol/L, after 5 min reaction) [%] | Inhibitory rate on tyrosinase, Average (Tyrosinase [2]; after 5 min reaction) [%] | highest inhibition rate on tyrosinase (Tyrosinase [2]) | duration of whitening effect (Tyrosinase [1]) | effect on tyrosinase reaction course (in words) (Tyrosinase [2]) | inhibition rate on tyrosinase, all concentrations (Tyrosinase [2]; all concentrations (5, 0.1, 0.05, 0.025 mmol/L), after 5 min reaction) | pathological tissue findings (Masson staining and HE staining) [3] | melanin inhibition (melanocytes, melanin granules) ([3]; Masson and HE staining) | pigmentation inhibition in B. mori (B. mori)
1 | Oc1ccc(OC2CCCCO2)cc1 (stereo not drawn) [deoxyarbutin] | more than 350 times | – | – | – | – | – | – | – | – | – | – | – | –
2 | OC[C@H]1O[C@@H](Oc2ccc(O)cc2)[C@H](O)[C@@H](O)[C@@H]1O [β-Arbutin, reference compound] | – | 32.70±0.33% | 53.61±1.27 | 74.31±1.81 | 72.50±0.12 | 58.28±16.85 | more than 70% | more than 8 weeks | – | – | – | – | –
3 | EARHSGYLPYQMF [BommoOKA_type4, mature peptide of silkworm neuropeptide Orcokinin, […]] | – | 13.96±0.21% | 17.02±0.11 | – | 11.28±0.22 | 15.49±3.17 | 19.69% | – | a certain inhibitory effect on tyrosinase | greater than 10% | inflammatory factors were reduced, and epidermal hyperplasia improved | – | –
4 | FYHLYGQNFLDIDSPVSSFD [BommoOKA_type3] | – | 5.54±0.2% | – | 6.50±0.17 | 9.37±0.34 | 8.27±2.42 | – | – | a certain inhibitory effect on tyrosinase | – | – | – | –
5 | NFDEIDRSSLNTFV [BommoOKA_type1, mature peptide of silkworm neuropeptide Orcokinin, […]] | – | 5.16±0.14% | 6.88±0.19 | 2.87±0.02 | 4.02±0.07 | 4.73±1.48 | – | – | seemed to tend to accelerate tyrosinase | – | loosely arranged tissues | many stretched melanin granules emerged | –
6 | NFDEIDRSSMPFPYAI [BommoOKA_type2, mature peptide of silkworm neuropeptide Orcokinin, […]] | – | 6.69±0.15% | 6.12±0.09 | 5.16±0.09 | – | 7.02±1.88 | – | – | – | – | Many inflammatory cells | – | key for pigmentation inhibition
7 | NLDSLGGANF [BommoOKB_type1, mature peptide of silkworm neuropeptide Orcokinin, […]] | – | greater than 10% | – | 8.6±1.39 | -4.02±0.82 | 9.32±8.66 | 19.69% | – | a certain inhibitory effect on tyrosinase | – | significant epidermal hyperplasia | – | –
8 | YDYISPYG [BommoOKA_type5, mature peptide of silkworm neuropeptide Orcokinin, YDYISPYG] | – | -2.68±1.07% | 3.25±1.57 | -0.19±1.08 | 5.93±0.94 | 1.58±3.28 | – | – | – | – | inflammatory factors were reduced, and epidermal hyperplasia improved | – | –
